{"source": "ChEMBL document CHEMBL5244243", "about": "“Novel strategies targeting bromodomain-containing protein 4 (BRD4) for cancer drug discovery” (Eur J Med Chem, 2020)", "key": {"[1]": {"target": "T1, Bromodomain-containing protein 4 (Homo sapiens, UniProt O60885)", "test": "Inhibition of BRD4 (unknown origin) BD1 domain incubated for 18 hrs"}, "MV4-11": {"tested_on": "MV4-11", "test": "Antitumor activity against human MV4-11 cells xenografted in mouse assessed as TGI at 1 mg/kg, po measured after 7 days relative to control", "assay_type": "functional", "settings": "MV4-11, 168 h, time 7 day, read-out: TGI"}, "[2]": {"target": "T1, Bromodomain-containing protein 4", "test": "Induction of BRD4 (unknown origin) degradation at 100 nM relative to control"}, "[3]": {"target": "T1, Bromodomain-containing protein 4", "test": "Inhibition of human full length BRD4"}, "[4]": {"target": "T1, Bromodomain-containing protein 4", "test": "Induction of BRD4 degradation in human MV4-11 cells at 100 nM measured after 18 hrs relative to control", "assay_type": "cell-based"}, "[5]": {"target": "T1, Bromodomain-containing protein 4", "test": "Inhibition of BRD4 (unknown origin) BD1 domain"}, "Histone deacetylase": {"target": "Histone deacetylase", "test": "Inhibition of HDAC (unknown origin)", "assay_type": "protein assay, Homo sapiens"}}}
{"compound": "COc1nnc2ccc(N3CCC(c4ccc(OCCN5CCN(C)C(=O)[C@H]5C)cc4)CC3)nn12", "note": "[AZD-5153]", "values": [{"measurement": "IC50", "setting": "[1]", "result": 1.6, "unit": "nM"}, {"measurement": "inhibition in vivo at 1 mg/kg", "setting": "MV4-11", "result": 72, "unit": "%"}]}
{"compound": "Cc1ncsc1-c1ccc(CNC(=O)[C@@H]2C[C@@H](O)CN2C(=O)C(NC(=O)COCCOCCOCCNC(=O)C[C@@H]2N=C(c3ccc(Cl)cc3)c3c(sc(C)c3C)-n3c(C)nnc32)C(C)(C)C)cc1", "note": "(some centres not stated)", "values": [{"measurement": "Activity", "setting": "[2]", "result": 90, "unit": "%"}]}
{"compound": "Cc1noc(C)c1-c1ccc2c(c1)c(Cc1ccc(F)cc1)cn2CCCCCCC(=O)NO", "values": [{"measurement": "IC50", "setting": "[3]", "result": 5, "unit": "nM"}]}
{"compound": "Cc1sc2c(c1C)C(c1ccc(Cl)cc1)=N[C@@H](CC(=O)NCCCCNC(=O)COc1cccc3c1C(=O)N(C1CCC(=O)NC1=O)C3=O)c1nnc(C)n1-2", "note": "(some centres not stated)", "values": [{"measurement": "Activity", "setting": "[4]", "result": 87, "unit": "%"}]}
{"compound": "Cc1sc2c(c1C)C(c1ccc(Cl)cc1)=N[C@@H](CC(=O)Nc1ccc(C(=O)NO)cc1)c1nnc(C)n1-2", "values": [{"measurement": "IC50", "setting": "[5]", "result": 11, "unit": "nM"}, {"measurement": "IC50", "setting": "Histone deacetylase", "result": 21, "unit": "nM"}]}
